ChEMBL document CHEMBL5303304, “EUbOPEN Chemogenomics Library - IncuCyte” (2023)

How the values were obtained:
Format in all cases: toxicity, cell-based
[1] = system: HEK-293T; test: Incucyte cell viability with HEK293T; settings: human, 10 µM, compound concentration 10 uM
[2] = system: Fibroblast; test: Incucyte cell viability with human fibroblast; settings: 10 µM, compound concentration 10 uM
[3] = system: U2OS; test: Incucyte cell viability with U2OS; settings: human, 10 µM, compound concentration 10 uM
Further: unitless GR value; below 1 slowed growth and below 0 cell loss.

Compound	Growth Rate ([1]; 0 h, replicate number 1)	Growth Rate ([1]; 0 h, replicate number 2)	Growth Rate ([1]; 6 h, replicate number 1)	Growth Rate ([1]; 6 h, replicate number 2)	Growth Rate ([1]; 12 h, replicate number 1)	Growth Rate ([1]; 12 h, replicate number 2)	Growth Rate ([1]; 18 h, replicate number 1)	Growth Rate ([1]; 18 h, replicate number 2)	Growth Rate ([1]; 24 h, replicate number 1)	Growth Rate ([1]; 24 h, replicate number 2)	Growth Rate ([2]; 0 h, replicate number 2)	Growth Rate ([3]; 12 h, replicate number 2)	Growth Rate ([3]; 18 h, replicate number 1)	Growth Rate ([3]; 18 h, replicate number 2)	Growth Rate ([3]; 24 h, replicate number 1)	Growth Rate ([3]; 24 h, replicate number 2)	Growth Rate ([2]; 18 h, replicate number 1)	Growth Rate ([2]; 18 h, replicate number 2)	Growth Rate ([3]; 0 h, replicate number 2)	Growth Rate ([3]; 6 h, replicate number 1)	further results
O=C1NC(Nc2ccccc2)=N/C1=C\c1ccc2c(c1)OCO2	0.4	0.1	0.83	0	0.37	0.19	0.43	0.47	0.56	0.33	-0.92	0.39	0.85	0.66	0.95	0.66					Growth Rate ([2]; 6 h, replicate number 1): -0.96; Growth Rate ([3]; 6 h, replicate number 2): 0.78
COc1ccc(-n2c(C)c([N+](=O)[O-])c3ccc(O)cc32)cc1	0.26	-0.46									0.13	0.65	0.88	0.61	0.91	0.77	-0.35				
CCc1cc2c(cc1-c1cccc(S(=O)(=O)F)c1)C(C)(C)c1[nH]c3cc(C#N)ccc3c1C2=O	0.33	0.37	-0.16	-0.05	0.48	0.78	0.83	0.95	0.69			0.66	0.76		0.66	0.77	-0.55	0.89	-0.59	0.58	Growth Rate ([2]; 0 h, replicate number 1): -0.25; Growth Rate ([2]; 6 h, replicate number 2): 0.75; Growth Rate ([2]; 12 h, replicate number 1): -0.96; Growth Rate ([2]; 24 h, replicate number 1): 0.61; Growth Rate ([2]; 24 h, replicate number 2): 0.9; Growth Rate ([3]; 0 h, replicate number 1): -1; Growth Rate ([3]; 12 h, replicate number 1): 0.52
COc1cc(C(=O)NCCOCCOCCOCC(=O)N[C@H](C(=O)N2C[C@@H](O)C[C@H]2C(=O)NCc2ccc(-c3scnc3C)cc2)C(C)(C)C)ccc1Nc1ncc(C(F)(F)F)c(Oc2cccc3c2C(=O)CC3)n1	-1										0.86					0.94			0.1		
O=C1c2c(Br)c(Br)c(Br)c(Br)c2C(=O)N1c1ncc[nH]1	0.6	0.63		0.37		0.57		0.74		0.78		0.88		0.8		0.85	0.49	1		0.7	Growth Rate ([2]; 0 h, replicate number 1): 0.94; Growth Rate ([2]; 6 h, replicate number 2): -0.34; Growth Rate ([2]; 12 h, replicate number 1): -0.93; Growth Rate ([2]; 12 h, replicate number 2): 0.46; Growth Rate ([3]; 0 h, replicate number 1): 0.58; Growth Rate ([3]; 6 h, replicate number 2): 0.25
O=C(O)C(F)(F)F.O=C1NC(=O)/C(=C/c2c[nH]c(=O)c(-c3ccc(N4CCNCC4)nc3)c2)S1	0.51	0.87				0.93		0.96		0.95			0.97		0.96		-0.06	0.69	-0.63	0.54	Growth Rate ([2]; 0 h, replicate number 1): 0.18; Growth Rate ([2]; 6 h, replicate number 2): -0.44; Growth Rate ([2]; 12 h, replicate number 1): -0.78; Growth Rate ([2]; 12 h, replicate number 2): 0.62; Growth Rate ([2]; 24 h, replicate number 1): 0.69; Growth Rate ([2]; 24 h, replicate number 2): 0.73; Growth Rate ([3]; 12 h, replicate number 1): 0.92
Cc1ncsc1-c1ccc(CNC(=O)[C@@H]2C[C@H](O)CN2C(=O)[C@@H](NC(=O)C2(F)CC2)C(C)(C)C)c(OCCOc2ccc(CN3CCN(c4cc(-c5ccccc5O)nnc4N)CC3)cc2)c1	-0.03	-0.99									0.56				0.98						
O=C(Nc1ccccc1C(=O)O)c1cc(S(=O)(=O)c2ccccc2)ccc1Cl	-0.5	-0.73	0.7		0.52	0.88	0.3	0.41	0.24	0.34	-0.73	0.55	0.96	0.65	0.79	0.8			0.97		
CC(C)(C)NC(=O)c1cncn1C1CCN(c2ccc(-c3nnc(C(F)(F)F)o3)cn2)CC1	-0.46	-0.33	0.35	-0.15	0.06	-0.22	0.18	-0.09	0.15	0.08		0.34	0.27	0.46	0.32	0.6	-0.2	-0.39	0.52	-0.4	Growth Rate ([2]; 0 h, replicate number 1): -1; Growth Rate ([2]; 6 h, replicate number 1): 0.1; Growth Rate ([2]; 6 h, replicate number 2): -0.99; Growth Rate ([2]; 12 h, replicate number 1): -0.09; Growth Rate ([2]; 12 h, replicate number 2): -0.49; Growth Rate ([2]; 24 h, replicate number 1): -0.13; Growth Rate ([2]; 24 h, replicate number 2): -0.11; Growth Rate ([3]; 0 h, replicate number 1): -0.02; Growth Rate ([3]; 6 h, replicate number 2): 0; Growth Rate ([3]; 12 h, replicate number 1): -0.09
Cc1nsc(Nc2cnc(C(F)(F)F)cn2)c1C(=O)Nc1ccc(O[C@H]2CCCN(CC(F)(F)F)C2)nc1	-0.98		-0.28	-0.6	-0.36	-0.54	-0.3	-0.41	-0.25	-0.32		0.59	0.06	0.57	0.03	0.52	-0.36	-0.45	0.91	0.72	Growth Rate ([2]; 0 h, replicate number 1): -1; Growth Rate ([2]; 6 h, replicate number 1): -0.21; Growth Rate ([2]; 6 h, replicate number 2): -0.93; Growth Rate ([2]; 12 h, replicate number 1): -0.43; Growth Rate ([2]; 24 h, replicate number 1): -0.23; Growth Rate ([2]; 24 h, replicate number 2): -0.3; Growth Rate ([3]; 6 h, replicate number 2): 0.73; Growth Rate ([3]; 12 h, replicate number 1): 0.39
CC(=O)c1ccc2c(c1)/C(=C(/NC1CCN(C)CC1)c1ccc3c(c1)OCO3)C(=O)N2	-0.53	0.02	-0.84	-0.95	-0.7	-0.83	-0.5	-0.63	-0.37	-0.45		0.33	0.32	0.13	0.21	0.13	0.78	0.48		0.57	Growth Rate ([2]; 12 h, replicate number 2): 0.74; Growth Rate ([2]; 24 h, replicate number 1): 0.63; Growth Rate ([2]; 24 h, replicate number 2): 0.37; Growth Rate ([3]; 12 h, replicate number 1): 0.52
